Earlier results in patent US8455021B2, “Composition for prophylaxis or treatment of urinary system infection and method thereof” (priority 2006, dated 2013).

Assays:
[1] = tested on: MMP-2; conditions: Yu Cai et al., J pharm Pharmacol. 2003
[2] = target: MMP-9 (Homo sapiens, UniProt P14780); conditions: Yu Cai et al., J pharm Pharmacol. 2003
Chain of MMP-9 (P14780 94-707, species assumed): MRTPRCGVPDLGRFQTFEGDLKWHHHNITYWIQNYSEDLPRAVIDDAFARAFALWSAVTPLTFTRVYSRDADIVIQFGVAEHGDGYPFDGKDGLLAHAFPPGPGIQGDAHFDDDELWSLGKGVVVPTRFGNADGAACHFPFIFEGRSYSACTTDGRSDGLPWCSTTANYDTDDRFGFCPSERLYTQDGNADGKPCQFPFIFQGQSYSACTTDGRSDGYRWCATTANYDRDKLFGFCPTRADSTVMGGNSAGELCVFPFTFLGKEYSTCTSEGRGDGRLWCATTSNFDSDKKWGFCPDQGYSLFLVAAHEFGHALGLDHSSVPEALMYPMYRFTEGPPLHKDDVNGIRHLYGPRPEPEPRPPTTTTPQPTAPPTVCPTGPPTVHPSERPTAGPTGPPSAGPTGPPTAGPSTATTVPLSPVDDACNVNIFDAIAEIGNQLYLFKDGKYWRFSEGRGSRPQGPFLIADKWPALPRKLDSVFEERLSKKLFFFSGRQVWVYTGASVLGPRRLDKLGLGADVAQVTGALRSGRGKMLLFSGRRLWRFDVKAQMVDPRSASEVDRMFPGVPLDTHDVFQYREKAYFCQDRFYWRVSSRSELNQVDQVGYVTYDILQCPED

- activity of matrix metalloproteinase MMP-2 [1]: inhibits the activity
- activity of matrix metalloproteinase MMP-9 [2]: inhibits the activity
SMILES: C[C@@H]1O[C@@H](O[C@H]2C(=O)c3c(O)cc(O)cc3O[C@@H]2c2ccc(O)c(O)c2)[C@H](O)[C@H](O)[C@H]1O [astilbin]
